Measurements taken from patent US12509431B2, “1,4-dihydroquinazolinone compounds and uses thereof” (Edgewise Therapeutics, Inc., priority 2022, dated 2025).

How the values were obtained:
Type in all cases: biochemical
Porcine Atria myofibrils = assay: Myofibril ATPase assay (PK/LDH NADH-coupled), atria myofibrils
Summary of the method: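 Values are EC25% (and, for inhibitors, EC50%) from 4-parameter logistic fits of activity normalized to vehicle wells. Rates came from linear regression of 340 nm kinetic reads (every 1.5-2 min, 75 min) of NADH-coupled ATP turnover by porcine atria myofibrils.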

[1] = tested on: Rabbit Skeletal myofibrils (rabbit psoas muscle); assay: Myofibril ATPase assay (PK/LDH NADH-coupled), skeletal myofibrils
Summary of the method: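 ATPase rate taken as linear-regression slope of A340 (NADH depletion through PK/LDH coupling) over a 75 min kinetic read, with psoas-derived rabbit skeletal myofibrils at pH 7.0. Four-parameter fits of vehicle-normalized activity give EC25 and, where reached, EC50.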

[2] = molecular target: T1, Porcine Ventricle myofibrils (left ventricle of Yucatan minipigs) (Sus scrofa, UniProt P79293); assay: Myofibril ATPase assay (PK/LDH NADH-coupled), ventricle myofibrils
T1 construct: Myofibrils from porcine cardiac muscle was isolated from the left ventricle of Yucatan minipigs; tissue Exemplar Genetics; host or cells: left ventricle of Yucatan minipigs
Summary of the method: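 NADH depletion (A340) coupled through pyruvate kinase/lactate dehydrogenase reports ATPase rate of porcine left-ventricle myofibrils over 75 min kinetic reads. Regression slopes, vehicle-normalized, fitted by 4-parameter logistic give EC25 and, where available, EC50.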

T1 sequence (P79293 whole entry): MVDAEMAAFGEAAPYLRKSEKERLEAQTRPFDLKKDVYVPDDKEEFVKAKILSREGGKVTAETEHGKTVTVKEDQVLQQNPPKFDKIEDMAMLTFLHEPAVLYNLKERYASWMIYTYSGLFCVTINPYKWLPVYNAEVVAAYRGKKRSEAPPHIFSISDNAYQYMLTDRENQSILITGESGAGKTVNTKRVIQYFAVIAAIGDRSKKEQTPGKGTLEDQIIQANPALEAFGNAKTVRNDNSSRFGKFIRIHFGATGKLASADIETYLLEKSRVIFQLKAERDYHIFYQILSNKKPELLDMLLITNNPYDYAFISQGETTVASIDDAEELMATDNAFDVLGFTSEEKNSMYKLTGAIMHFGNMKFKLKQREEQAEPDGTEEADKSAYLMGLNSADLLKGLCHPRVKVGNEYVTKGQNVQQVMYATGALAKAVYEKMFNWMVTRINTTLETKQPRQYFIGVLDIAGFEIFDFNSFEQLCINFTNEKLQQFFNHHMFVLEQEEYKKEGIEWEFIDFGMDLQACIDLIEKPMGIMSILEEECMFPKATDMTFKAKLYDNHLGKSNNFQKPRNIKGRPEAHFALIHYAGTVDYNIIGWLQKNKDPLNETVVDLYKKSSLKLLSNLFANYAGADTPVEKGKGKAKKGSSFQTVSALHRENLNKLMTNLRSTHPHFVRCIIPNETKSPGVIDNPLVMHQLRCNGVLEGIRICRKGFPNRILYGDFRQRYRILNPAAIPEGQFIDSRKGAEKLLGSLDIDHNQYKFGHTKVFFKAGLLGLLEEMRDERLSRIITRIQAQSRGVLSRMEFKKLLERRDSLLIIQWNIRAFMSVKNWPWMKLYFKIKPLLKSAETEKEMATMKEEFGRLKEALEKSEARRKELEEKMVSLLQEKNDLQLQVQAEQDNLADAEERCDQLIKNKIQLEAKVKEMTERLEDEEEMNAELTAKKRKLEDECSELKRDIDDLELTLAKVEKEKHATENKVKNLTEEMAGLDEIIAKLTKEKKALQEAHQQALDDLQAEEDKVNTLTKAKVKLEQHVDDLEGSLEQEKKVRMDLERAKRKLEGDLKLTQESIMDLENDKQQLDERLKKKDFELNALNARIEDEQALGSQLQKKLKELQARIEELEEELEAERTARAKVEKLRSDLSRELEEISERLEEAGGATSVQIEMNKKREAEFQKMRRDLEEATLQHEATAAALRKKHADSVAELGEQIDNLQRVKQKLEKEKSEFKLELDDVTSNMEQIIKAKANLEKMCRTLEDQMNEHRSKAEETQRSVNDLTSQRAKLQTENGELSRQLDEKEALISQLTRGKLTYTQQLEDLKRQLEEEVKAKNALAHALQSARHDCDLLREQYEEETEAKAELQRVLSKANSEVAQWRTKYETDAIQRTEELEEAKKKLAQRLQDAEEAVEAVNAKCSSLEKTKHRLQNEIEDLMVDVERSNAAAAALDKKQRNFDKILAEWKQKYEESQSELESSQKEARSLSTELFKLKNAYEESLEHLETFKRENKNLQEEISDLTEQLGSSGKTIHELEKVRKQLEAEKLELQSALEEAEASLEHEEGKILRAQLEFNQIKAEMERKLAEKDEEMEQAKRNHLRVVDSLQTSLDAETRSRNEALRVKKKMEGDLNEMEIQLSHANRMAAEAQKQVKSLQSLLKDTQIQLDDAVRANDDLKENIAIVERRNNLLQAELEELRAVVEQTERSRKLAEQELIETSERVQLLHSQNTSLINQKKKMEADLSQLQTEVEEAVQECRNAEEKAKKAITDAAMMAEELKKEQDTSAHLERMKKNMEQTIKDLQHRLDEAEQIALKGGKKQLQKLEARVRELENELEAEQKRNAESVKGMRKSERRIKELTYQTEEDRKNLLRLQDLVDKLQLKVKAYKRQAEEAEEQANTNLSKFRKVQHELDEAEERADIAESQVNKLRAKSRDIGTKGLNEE

| SMILES | Porcine Atria IC25 (Porcine Atria myofibrils; Table 8) | Rabbit Psoas IC25 ([1]; Table 8) | Porcine Ventricle IC25 ([2]; Table 8) | Porcine Atria IC25 (Porcine Atria myofibrils; Table 7) | Rabbit Psoas IC25 ([1]; Table 7) | Porcine Ventricle IC25 ([2]; Table 7) |
| --- | --- | --- | --- | --- | --- | --- |
| C[C@H](NC(=O)CN1C(=O)Nc2ccc(F)c(F)c2[C@@H]1C)c1ccc(F)cc1F (relative stereo) [Compound B231, 2-[(4S*)-5,6-Difluoro-4-methyl-2-oxo-1,4-dihydroquinazolin-3-yl]-N-[(1S)-1-(2,4-difluorophenyl)ethyl]acetamide] | 0.21 µM | 0.02107 µM | 1.558 µM |  |  |  |
| C[C@@H](NC(=O)CN1Cc2c(ccc(C#N)c2F)NC1=O)c1ccc(C#N)cc1F [Compound B129] | 0.26 µM | 3.992 µM | 100 µM |  |  |  |
| Cc1nccc2c1CN(CC(=O)N[C@@H](C)c1ccc(F)cc1F)C(=O)N2 [Compound N129, N-[(1S)-1-(2,4-Difluorophenyl)ethyl]-2-{5-methyl-2-oxo-1H,4H-pyrido[4,3-d]pyrimidin-3-yl}acetamide] |  |  |  | 4.20 µM | 0.559 µM | 4.847 µM |
| C[C@H](NC(=O)CN1C(=O)Nc2ccc(C#N)cc2C12CC2)c1ncc(F)cc1F [Compound B150] | 0.98 µM | 100 µM | 22.65 µM |  |  |  |
| C[C@H](NC(=O)CN1Cc2c(ccc(F)c2F)NC1=O)c1cnc(C#N)cn1 [Compound B92] | 0.03 µM | 0.01909 µM | 0.05126 µM |  |  |  |
| Cc1ncc(C#N)nc1[C@@H](C)NC(=O)CN1Cc2c(ccc(F)c2F)NC1=O [Compound B348] | 10.17 µM | 9.36 µM | 6.79 µM |  |  |  |
| C[C@@H](NC(=O)CN1C(=O)Nc2ccc(F)c(F)c2C12CC2)c1ncc(C#N)cc1Cl [Compound B306] | 0.10 µM | 0.61 µM | 0.18 µM |  |  |  |
| CC1c2ccccc2NC(=O)N1CC(=O)N[C@@H](C)c1ccc(F)cc1F (stereo partly drawn) [Compound B244, N-[(1S)-1-(2,4-Difluorophenyl)ethyl]-2-(4-methyl-2-oxo-1,4-dihydroquinazolin-3-yl)acetamide] | 2.50 µM | 0.695 µM | 4.818 µM |  |  |  |
| C[C@H](NC(=O)CN1Cc2cc(F)ccc2NC1=O)c1ncc(F)cc1F [Compound B230] | 0.22 µM | 0.182 µM | 1.835 µM |  |  |  |
| N#Cc1cc(F)c2c(c1)OC[C@@H]2NC(=O)CN1Cc2c(ccc(F)c2C#N)NC1=O [Compound B118] | 0.07 µM | 0.0136 µM | 0.11 µM |  |  |  |
| N#Cc1cc(F)c2c(c1)OC[C@@H]2NC(=O)CN1C(=O)Nc2ccc(F)c(F)c2C12CC2 [Compound B320] | 0.23 µM | 0.33 µM | 0.24 µM |  |  |  |
| C[C@H](NC(=O)CN1C(=O)Nc2cccnc2C12CC2)c1ccc(F)cc1F [Compound N88] |  |  |  | 0.13 µM | 0.1726 µM | 0.7484 µM |
| Cc1noc([C@H](C)NC(=O)CN2Cc3c(ccc(F)c3F)NC2=O)n1 [Compound B72] | 2.25 µM | 1.903 µM | 100 µM |  |  |  |
| C[C@H](NC(=O)CN1Cc2c(ccc(F)c2F)NC1=O)c1ccncc1F [Compound B100] | 0.03 µM | 0.1246 µM | 0.7409 µM |  |  |  |
| Cc1cccc2c1C1(CC1)N(CC(=O)N[C@H](C)c1ncc(C#N)nc1C)C(=O)N2 [Compound B308] | 20.75 µM | 100.00 µM | 100.00 µM |  |  |  |
| C[C@H](NC(=O)CN1Cc2c(F)cccc2NC1=O)c1ccc(F)cc1F [Compound B248, N-[(1S)-1-(2,4-Difluorophenyl)ethyl]-2-(5-fluoro-2-oxo-1,4-dihydroquinazolin-3-yl)acetamide] | 0.05 µM | 0.062 µM | 0.2832 µM |  |  |  |
| COc1cccnc1[C@H](C)NC(=O)CN1Cc2c(ccc(F)c2F)NC1=O [Compound B185] | 100.00 µM | 100 µM | 100 µM |  |  |  |

| SMILES | Porcine Atria IC25 (Porcine Atria myofibrils; Table 8) | Rabbit Psoas IC25 ([1]; Table 8) | Porcine Ventricle IC25 ([2]; Table 8) | Porcine Atria IC25 (Porcine Atria myofibrils; Table 7) | Rabbit Psoas IC25 ([1]; Table 7) | Porcine Ventricle IC25 ([2]; Table 7) |
| --- | --- | --- | --- | --- | --- | --- |
| O=C(CN1Cc2c(ccnc2C(F)(F)F)NC1=O)N[C@H](CO)c1ncc(F)cc1F [Compound N49] |  |  |  | 100.00 µM | 100 µM | 100 µM |
| Cc1nc(C#N)cnc1[C@@H](C)NC(=O)CN1C(=O)Nc2ccc(F)c(F)c2C12CC2 [Compound B325] | 1.04 µM | 2.34 µM | 3.21 µM |  |  |  |
| C[C@H](NC(=O)CN1Cc2c(ccc(F)c2F)NC1=O)c1ccc2cnccc2n1 [Compound B275] | 8.27 µM | 100.00 µM | 100.00 µM |  |  |  |
| C[C@H](NC(=O)CN1Cc2cnccc2NC1=O)c1ccc(C#N)cc1F [Compound N21] |  |  |  | 4.36 µM | 6.632 µM | 13.45 µM |
| Cc1nc(C#N)cnc1[C@H](C)NC(=O)CN1C(=O)Nc2ccc(F)c(F)c2C12CC2 [Compound B326] | 0.16 µM | 0.02 µM | 0.06 µM |  |  |  |
| C[C@@H](NC(=O)CN1Cc2c(ccnc2C(F)(F)F)NC1=O)c1ncc(F)cc1F [Compound N79] |  |  |  | 100.00 µM | 100 µM | 100 µM |
| C[C@H](NC(=O)CN1Cc2c(ccc(F)c2F)NC1=O)c1ccc2ncccc2n1 [Compound B287] | 75.65 µM | 100.00 µM | 100.00 µM |  |  |  |
| C[C@@H](NC(=O)CN1C(=O)Nc2cccnc2C12COC2)c1ncc(F)cc1F [Compound N29] |  |  |  | 100.00 µM | 100 µM | 100 µM |
| C[C@H](NC(=O)CN1Cc2cc(F)cnc2NC1=O)c1ccc(F)cc1F [Compound N71, N-[(1S)-1-(2,4-Difluorophenyl)ethyl]-2-{6-fluoro-2-oxo-1H,4H-pyrido[2,3-d]pyrimidin-3-yl}acetamide] |  |  |  | 36.26 µM | 2.804 µM | 100 µM |
| C[C@H](NC(=O)[C@H](C)N1Cc2nc(F)ccc2NC1=O)c1ccccc1F [Compound N92] |  |  |  | 100.00 µM | 100 µM | 100 µM |
| Cc1nc(C#N)ncc1[C@H](C)NC(=O)CN1C(=O)Nc2ccc(F)cc2C12CC2 [Compound B333] | 100.00 µM | 100.00 µM | 100.00 µM |  |  |  |
| C[C@H](C(=O)N[C@H](C)c1ncc(C#N)cc1F)N1Cc2c(ccc(F)c2F)NC1=O [Compound B273] | 1.96 µM | 1.57 µM | 22.58 µM |  |  |  |
| O=C(CN1Cc2c(ccc(F)c2F)NC1=O)N[C@H]1COc2ccc(F)cc2C1 [Compound B88] | 0.46 µM | 100 µM | 2.339 µM |  |  |  |
| C[C@@H](NC(=O)CN1Cc2c(ccc(F)c2F)NC1=O)c1cc(C#N)c(F)cn1 [Compound B52] | 0.42 µM | 3.964 µM | 1.456 µM |  |  |  |
| Cc1cnncc1[C@@H](C)NC(=O)CN1Cc2c(ccc(F)c2F)NC1=O [Compound B46] | 0.58 µM | 0.6601 µM | 1.847 µM |  |  |  |
| Cc1nsc([C@@H](C)NC(=O)CN2Cc3c(ccc(F)c3F)NC2=O)n1 [Compound B359] | 4.96 µM | 13.87 µM | 100.00 µM |  |  |  |
